pIC50: −log10 of the molar value. Where only a bound is given, the exact number is not on record here.

One may read the pIC50 as −log10 of the IC50, conventionally taken in molar units.

The test has as its target T1, human HSD17β13 (stable HEK293T cell line overexpressing human HSD17β13) (Homo sapiens, UniProt Q7Z5P4).
T1 construct: expressed in transfected cells
T1 sequence (Q7Z5P4 20-300): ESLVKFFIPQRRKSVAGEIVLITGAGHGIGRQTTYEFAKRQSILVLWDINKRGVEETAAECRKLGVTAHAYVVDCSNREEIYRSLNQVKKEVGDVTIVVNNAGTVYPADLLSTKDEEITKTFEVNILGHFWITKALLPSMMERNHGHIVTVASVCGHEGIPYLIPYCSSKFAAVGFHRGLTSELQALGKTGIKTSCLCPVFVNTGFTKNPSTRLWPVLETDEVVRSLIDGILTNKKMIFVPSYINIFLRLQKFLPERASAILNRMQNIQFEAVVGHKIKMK
The experiment in a line: HSD17β13 inhibitor cell-based screening assay (conversion of estradiol-d2 to estrone-d2 by RF-MS). The following applies: conversion of estradiol-d2 to estrone-d2 after 24 hours. On the procedure: The purpose of this cell-based assay is to determine the cellular efficacy (IC50) of HSD17β13 inhibitors in a stable HEK293 T cell line overexpressing human HSD17β13. The assay measures by Rapid Fire mass-spectrometry (RF-MS) the conversion of estradiol-d2 to estrone-d2. Cytotoxicity was also assessed via luminescent signal generated by the ATPlite viability assay reagent. To screen compounds for HSD17013 inhibition, black 384-well plates were seeded with 1000× concentration of compounds in a 9-point 1:3 dilution curve (final top concentration of 10 μM) as well as 1000× concentration of 17β-estradiol-d2 (5 μM final concentration) added to all wells. HEK293T cells stably overexpressing human HSD17013 and the parent HEK293T cell lines were then seeded in the plates on top of the compounds and substrate in MEM media containing 1% charcoal/dextran-treated FBS. Supernatant is collected and immediately frozen after 24 hours of incubation, and conversion of estradiol-d2 to estrone-d2 is measured at Pure Honey by RF-MS. The remaining media in the plate was removed from the wells and replaced with ATPlite viability assay reagent. Luminescent signal from the ATPlite reagent was measured on the Envision plate reader. 10 μL of 10 mM compounds stocks (1000×) dissolved in DMSO were pipetted into the appropriate wells on the 384 LDV plate (Labcyte; cat. no.: LP-0200) and the appropriate volumes of DMSO solvent were included onto an intermediate plate to further dilute the compound stocks to complete the 9-pt dose curve (final top concentration of 10 μM). 10 μL per well of 5 mM estradiol-d2 (1000×) (Cayman; item no.: 9002846) (5 μM final concentration) dissolved in DMSO was seeded into the appropriate number of wells on the same source plate as the compounds. The Echo 650 (Labcyte) was used for compound dilutions and dispensing both the compounds and the substrate onto a dry 384-well black assay plate (Falcon/Corning; cat. no.:353962). Afterwards, cells were immediately counted and seeded onto the plate. Cells were cultured for expansion in EMEM (ATCC; cat. no.: 30-2003)+10% FBS (Hyclone; cat. no.: SH3007003)+1×PenStrep (Gibco; cat. no.: 15140-122). All media for stable cell line overexpressing HSD17013 also included […] zeocin (Invitrogen; cat. no.: 46-0509) for selection. To prepare cells for seeding into the 384-well assay plate, cells were trypsinized for 3 minutes in the incubator. The Trypsin-EDTA (0.25%) (Gibco; cat. no.: 25200056) was neutralized with EMEM complete culture medium warmed to 37° C. Cells were then centrifugated at 300×g for 5 minutes at room temperature. The cell pellet was resuspended in phenol red-free MEM (Gibco; cat. no.: 51200-038)+1% charcoal/dextran-treated FBS (Hyclone; cat. no.: SH3006803) and 1×PenStrep warmed to 37° C. Cells were then counted using the TC20 automated cell-counter (Bio-Rad) and disposable duel chamber counting slides (Bio-Rad; cat. no.: 1450016) for a cell density of 1.5E5 cells/mL to then seed into the assay plate at 7.5E3 cells/well with 50 μL of media per well. Prior to the 24-hour time point, a solution of 1% formic acid (10×) (Honeywell; cat. no.: 94318) in MEM phenol red-free MEM+1% charcoal/dextran-treated FBS and 1×PenStrep was made. ATPlite luminescent ATP detection reagent (PerkinElmer; cat. no.: 6016739) was prepared according to the manufacturer's instructions. A new 384-well Falcon plate (collection plate) was seeded with 2 μL per well of 10× formic acid and then 18 μL of cell supernatant was added onto the formic acid, resulting in a 20 μL per well solution of 0.1% formic acid (1×) in supernatant. The plate of collected supernatant was immediately frozen on dry ice before being stored at −80° C. The collection plate was shipped to Momentum Biotechnologies for analysis. The remaining supernatant in the assay plate was discarded and 25 μL of ATPlite reagent was added to each well. […]
On to `COc1ccc(-c2nc3sc4c(S(=O)(=O)O)cccc4c3c(=O)n2Cc2cnco2)c(C2CC2)c1` [Example 12, 2-(2-cyclopropyl-4-methoxyphenyl)-3-(oxazol-5-ylmethyl)-4-oxo-3,4-dihydrobenzo[4,5]thieno[2,3-d]pyrimidine-8-sulfonic acid], for which the negative-log IC50 (pIC50) was 4.00 to 6.00. Take `COc1ccc(-c2nc3sc4c(OC(C)=O)c(Cl)ccc4c3c(=O)n2Cc2cnco2)c(C2CC2)c1` [Example 27, 7-chloro-2-(2-cyclopropyl-4-methoxyphenyl)-3-(oxazol-5-ylmethyl)-4-oxo-3,4-dihydrobenzo[4,5]thieno[2,3-d]pyrimidin-8-yl acetate]: the negative logarithm of the IC50 (pIC50) is > 7.00. Consider `COc1ccc(-c2nc3sc4c(O)c(C=O)ccc4c3c(=O)n2Cc2cnco2)c(C2CC2)c1` [Example 31, 2-(2-cyclopropyl-4-methoxyphenyl)-8-hydroxy-3-(oxazol-5-ylmethyl)-4-oxo-3,4-dihydrobenzo[4,5]thieno[2,3-d]pyrimidine-7-carbaldehyde], for which the pIC50 was 4.00 to 6.00. `COc1ccc(-c2nc3sc4c(O)c(C#N)ccc4c3c(=O)n2Cc2cnco2)c(C2CC2)c1` [Example 33, 2-(2-cyclopropyl-4-methoxyphenyl)-8-hydroxy-3-(oxazol-5-ylmethyl)-4-oxo-3,4-dihydrobenzo[4,5]thieno[2,3-d]pyrimidine-7-carbonitrile] gave a negative logarithm of the IC50 (pIC50) of 6.00 to 6.30. Regarding `COc1ccc(-c2nc3sc4c(O)c(C(=O)O)ccc4c3c(=O)n2Cc2cnco2)c(C2CC2)c1` [Example 34, 2-(2-cyclopropyl-4-methoxyphenyl)-8-hydroxy-3-(oxazol-5-ylmethyl)-4-oxo-3,4-dihydrobenzo[4,5]thieno[2,3-d]pyrimidine-7-carboxylic acid], the pIC50 is 4.00 to 6.00. With `COc1ccc(-c2nc3sc4c(O)c(-c5ccccc5)ccc4c3c(=O)n2Cc2cnco2)c(C2CC2)c1` [Example 35, 2-(2-cyclopropyl-4-methoxyphenyl)-8-hydroxy-3-(oxazol-5-ylmethyl)-7-phenylbenzo[4,5]thieno[2,3-d]pyrimidin-4(3H)-one], the pIC50 was 4.00 to 6.00.

`COc1ccc(-c2nc3sc4c(Br)c(O)ccc4c3c(=O)n2Cc2cnco2)c(C2CC2)c1` [Example 37, 8-bromo-2-(2-cyclopropyl-4-methoxyphenyl)-7-hydroxy-3-(oxazol-5-ylmethyl)benzo[4,5]thieno[2,3-d]pyrimidin-4(3H)-one] gave a pIC50 of 4.00 to 6.00. The figure for `COc1ccc(-c2nc3sc4c(ccc5oc(=O)[nH]c54)c3c(=O)n2Cc2cnco2)c(C2CC2)c1` [Example 38, 8-(2-cyclopropyl-4-methoxyphenyl)-7-(oxazol-5-ylmethyl)oxazolo[4″,5″:3′,4′]benzo[1′,2′:4,5]thieno[2,3-d]pyrimidine-2,6(1H,7H)-dione] is 4.00 to 6.00; for `COC(=O)Cn1c(-c2ccc(OC)cc2C2CC2)nc2sc3c(O)c(Cl)ccc3c2c1=O` [Example 45, methyl 2-(7-chloro-2-(2-cyclopropyl-4-methoxyphenyl)-8-hydroxy-4-oxobenzo[4,5]thieno[2,3-d]pyrimidin-3(4H)-yl)acetate] it is 6.30 to 7.00; for `COc1ccc(-c2nc3sc4c(O)c(Cl)ccc4c3c(=O)n2CC(=O)O)c(C2CC2)c1` [Example 46, 2-(7-chloro-2-(2-cyclopropyl-4-methoxyphenyl)-8-hydroxy-4-oxobenzo[4,5]thieno[2,3-d]pyrimidin-3(4H)-yl)acetic acid] it is 4.00 to 6.00.

Regarding `COc1ccc(-c2nc3sc4c(O)c(Cl)ccc4c3c(=O)n2Cc2ccno2)c(C2CC2)c1` [Example 47, 7-chloro-2-(2-cyclopropyl-4-methoxyphenyl)-8-hydroxy-3-(isoxazol-5-ylmethyl)benzo[4,5]thieno[2,3-d]pyrimidin-4(3H)-one], the pIC50 is > 7.00. The figure for `COc1ccc(-c2nc3sc4c(O)c(Cl)ccc4c3c(=O)n2Cc2cnc(C3CC3)o2)c(C2CC2)c1` [Example 49, 7-chloro-2-(2-cyclopropyl-4-methoxyphenyl)-3-((2-cyclopropyloxazol-5-yl)methyl)-8-hydroxybenzo[4,5]thieno[2,3-d]pyrimidin-4(3H)-one] is > 7.00; for `COc1ccc(-c2nc3sc4c(O)c(Cl)ccc4c3c(=O)n2CC(=O)NCCO)c(C2CC2)c1` [Example 51, 2-(7-chloro-2-(2-cyclopropyl-4-methoxyphenyl)-8-hydroxy-4-oxobenzo[4,5]thieno[2,3-d]pyrimidin-3(4H)-yl)-N-(2-hydroxyethyl)acetamide] it is 6.00 to 6.30. The figure for `COc1ccc(-c2nc3sc4c(O)c(Cl)ccc4c3c(=O)n2Cc2sc(C)nc2C)c(C2CC2)c1` [Example 53, 7-chloro-2-(2-cyclopropyl-4-methoxyphenyl)-3-((2,4-dimethylthiazol-5-yl)methyl)-8-hydroxybenzo[4,5]thieno[2,3-d]pyrimidin-4(3H)-one] is > 7.00; for `COc1ccc(-c2nc3sc4c(O)c(Cl)ccc4c3c(=O)n2CC2=NCCO2)c(C2CC2)c1` [Example 54, 7-chloro-2-(2-cyclopropyl-4-methoxyphenyl)-3-((4,5-dihydrooxazol-2-yl)methyl)-8-hydroxybenzo[4,5]thieno[2,3-d]pyrimidin-4(3H)-one] it is 6.30 to 7.00.

On to `COc1ccc(-c2nc3sc4c(O)ccc(F)c4c3c(=O)n2Cc2cnco2)c(C2CC2)c1` [Example 55, 2-(2-cyclopropyl-4-methoxyphenyl)-5-fluoro-8-hydroxy-3-(oxazol-5-ylmethyl)benzo[4,5]thieno[2,3-d]pyrimidin-4(3H)-one], for which the pIC50 is > 7.00.

As to `COc1ccc(-c2nc3sc4c(O)c(F)ccc4c3c(=O)n2Cc2cnco2)c(C2CC2)c1` [Example 56, 2-(2-cyclopropyl-4-methoxyphenyl)-7-fluoro-8-hydroxy-3-(oxazol-5-ylmethyl)benzo[4,5]thieno[2,3-d]pyrimidin-4(3H)-one], the negative logarithm of the IC50 (pIC50) was > 7.00. In the case of `COc1ccc(-c2nc3sc4c(O)c(Cl)ccc4c3c(=O)n2Cc2cnoc2)c(C2CC2)c1` [Example 57, 7-chloro-2-(2-cyclopropyl-4-methoxyphenyl)-8-hydroxy-3-(isoxazol-4-ylmethyl)benzo[4,5]thieno[2,3-d]pyrimidin-4(3H)-one] it was > 7.00. The figure for `COc1ccc(-c2nc3sc4c(O)c(Cl)ccc4c3c(=O)n2Cc2cnc(C)nc2)c(C2CC2)c1` [Example 58, 7-chloro-2-(2-cyclopropyl-4-methoxyphenyl)-8-hydroxy-3-((2-methylpyrimidin-5-yl)methyl)benzo[4,5]thieno[2,3-d]pyrimidin-4(3H)-one] is > 7.00; for `COc1ccc(-c2nc3sc4c(O)c(Cl)ccc4c3c(=O)n2Cc2cnc(C)o2)c(C2CC2)c1` [Example 59, 7-chloro-2-(2-cyclopropyl-4-methoxyphenyl)-8-hydroxy-3-((2-methyloxazol-5-yl)methyl)benzo[4,5]thieno[2,3-d]pyrimidin-4(3H)-one] it is > 7.00; for `Cc1cc(Cn2c(-c3cc(F)c(F)cc3C3CC3)nc3sc4c(O)c(Cl)ccc4c3c2=O)on1` [Example 60, 7-chloro-2-(2-cyclopropyl-4,5-difluorophenyl)-8-hydroxy-3-((3-methylisoxazol-5-yl)methyl)benzo[4,5]thieno[2,3-d]pyrimidin-4(3H)-one] it is > 7.00.

(Values after patent publication US20250154163A1, “Pyrimidinone-Containing 17-Beta-Hydroxysteroid Dehydrogenase Type 13 Inhibitors” (ENANTA PHARMACEUTICALS, INC., priority 2023, published 2025).)
